SMILES strings stand for the structures. Bounds are passed on as bounds.

Holding throughout (type): functional
The subject of experiment [1] is Thanatephorus cucumeris. Nature of the experiment: Fungicidal activity against Thanatephorus cucumeris assessed as rice sheath blight disease control at 2 ppm foliar application for 24 hr before inoculation at 26 +- 2 measured after 5 days by preventive manner.
Experiment [2] deals with Thanatephorus cucumeris. Kind of experiment: Fungicidal activity against Thanatephorus cucumeris assessed as rice sheath blight disease control at 7.8 ppm foliar application for 24 hr before inoculation at 26 +- 2 measured after 5 days by preventive manner.
Experiment [3] has as its system Podosphaera fuliginea. Nature of the experiment: Fungicidal activity against Podosphaera fuliginea assessed as cucumber powdery mildew control under greenhouse at 125 ppm foliar application 24 hr before inoculation on upper surface of leaf at 23 +/- 2 degC by preventive manner.
In experiment [4] the test system is Podosphaera fuliginea. Kind of experiment: Fungicidal activity against Podosphaera fuliginea assessed as cucumber powdery mildew control under greenhouse at 2 ppm foliar application 24 hr before inoculation on upper surface of leaf at 23 +/- 2 degC by preventive manner.
Experiment [5] deals with Podosphaera fuliginea. Kind of experiment: Fungicidal activity against Podosphaera fuliginea assessed as cucumber powdery mildew control under greenhouse at 31.3 ppm foliar application 24 hr before inoculation on upper surface of leaf at 23 +/- 2 degC by preventive manner.
The subject of experiment [6] is Pseudoperonospora cubensis. Kind of experiment: Fungicidal activity against Pseudoperonospora cubensis assessed as cucumber downy mildew disease control at 31.3 ppm foliar application 24 hr before inoculation on upper surface of leaf by preventive manner.
Experiment [7] deals with Pseudoperonospora cubensis. Nature of the experiment: Fungicidal activity against Pseudoperonospora cubensis assessed as cucumber downy mildew disease control at 125 ppm foliar application 24 hr before inoculation on upper surface of leaf by preventive manner.
Experiment [8] relates to Thanatephorus cucumeris. Nature of the experiment: Fungicidal activity against Thanatephorus cucumeris assessed as rice sheath blight disease control at 31.3 ppm foliar application for 24 hr before inoculation at 26 +- 2 measured after 5 days by preventive manner.
The test system of experiment [9] is Pseudoperonospora cubensis. Nature of the experiment: Fungicidal activity against Pseudoperonospora cubensis assessed as cucumber downy mildew disease control at 2 ppm foliar application 24 hr before inoculation on upper surface of leaf by preventive manner.
Experiment [10] concerns Thanatephorus cucumeris. Nature of the experiment: Fungicidal activity against Thanatephorus cucumeris assessed as rice sheath blight disease control at 125 ppm foliar application for 24 hr before inoculation at 26 +- 2 measured after 5 days by preventive manner.
The subject of experiment [11] is Podosphaera fuliginea. Kind of experiment: Fungicidal activity against Podosphaera fuliginea assessed as cucumber powdery mildew control under greenhouse at 7.8 ppm foliar application 24 hr before inoculation on upper surface of leaf at 23 +/- 2 degC by preventive manner.
In experiment [12] the test system is Pseudoperonospora cubensis. Nature of the experiment: Fungicidal activity against Pseudoperonospora cubensis assessed as cucumber downy mildew disease control at 7.8 ppm foliar application 24 hr before inoculation on upper surface of leaf by preventive manner.

For the compound `CNC(=O)/C(=N/OC)c1ccc(C)cc1Oc1ccccc1`, the Activity (in the experiment on Thanatephorus cucumeris [1]; with Thanatephorus cucumeris [2]; in the experiment on Podosphaera fuliginea [3]; in the experiment with Podosphaera fuliginea [4]; with Podosphaera fuliginea [5]; in [6]) was 70% in each case. Moreover, the Activity (in experiment [7]; with Thanatephorus cucumeris [8]; in [9]; in the experiment with Thanatephorus cucumeris [10]; with Podosphaera fuliginea [11]; in experiment [12]) was 70% in each case.
With `CNC(=O)/C(=N/OC)c1ccccc1COc1ccccc1`, the Activity was <70% with Thanatephorus cucumeris [1]; <70% in the experiment with Thanatephorus cucumeris [2]; 70% in the experiment on Podosphaera fuliginea [3]; 70% in the experiment on Podosphaera fuliginea [4]; 70% in the experiment with Podosphaera fuliginea [5]; <70% in experiment [6]. In addition, the Activity is reported as <70% in experiment [7]; <70% in the experiment on Thanatephorus cucumeris [8]; <70% in experiment [9]; <70% with Thanatephorus cucumeris [10]; 70% with Podosphaera fuliginea [11]; <70% in experiment [12].
Regarding `CNC(=O)/C(=N/OC)c1cc([N+](=O)[O-])ccc1Oc1ccccc1`, the Activity (in the experiment on Thanatephorus cucumeris [1]; in the experiment on Thanatephorus cucumeris [2]; in the experiment with Podosphaera fuliginea [3]; in the experiment with Podosphaera fuliginea [4]; in the experiment with Podosphaera fuliginea [5]; in [6]) was <70% throughout. Besides, the Activity (in experiment [7]; with Thanatephorus cucumeris [8]; in experiment [9]; with Thanatephorus cucumeris [10]; with Podosphaera fuliginea [11]; in experiment [12]) was <70% throughout.
For `CNC(=O)/C(=N/OC)c1ccccc1CCc1ccccc1`, the Activity in the experiment with Thanatephorus cucumeris [1] was <70%; in the experiment on Thanatephorus cucumeris [2], <70%; in the experiment on Podosphaera fuliginea [3] it was 70%; in the experiment with Podosphaera fuliginea [4], 70%; with Podosphaera fuliginea [5], 70%; in [6] it was <70%. Also, the Activity in experiment [7] is reported as <70%; with Thanatephorus cucumeris [8], <70%; in experiment [9], <70%; in the experiment on Thanatephorus cucumeris [10], <70%; in the experiment with Podosphaera fuliginea [11], 70%; in experiment [12], <70%.
For `CNC(=O)/C(=N/OC)c1c(OC)cccc1Oc1ccccc1`, the Activity (in the experiment on Thanatephorus cucumeris [1]; in the experiment on Thanatephorus cucumeris [2]; in the experiment on Podosphaera fuliginea [3]; in the experiment on Podosphaera fuliginea [4]; with Podosphaera fuliginea [5]; in experiment [6]) was <70% each time. Moreover, the Activity (in experiment [7]; in the experiment on Thanatephorus cucumeris [8]; in experiment [9]; in the experiment with Thanatephorus cucumeris [10]; in the experiment with Podosphaera fuliginea [11]; in experiment [12]) was <70% each time.
In the case of `CCNC(=O)/C(=N/OC)c1ccccc1Oc1ccccc1`, the Activity was 70% with Thanatephorus cucumeris [1]; 70% in the experiment on Thanatephorus cucumeris [2]; 70% with Podosphaera fuliginea [3]; 70% in the experiment on Podosphaera fuliginea [4]; 70% with Podosphaera fuliginea [5]; <70% in experiment [6]. The Activity was <70% in experiment [7]; 70% in the experiment on Thanatephorus cucumeris [8]; <70% in [9]; 70% with Thanatephorus cucumeris [10]; 70% in the experiment with Podosphaera fuliginea [11]; <70% in [12].
In the case of `CNC(=O)/C(=N/OC)c1cc(F)ccc1Oc1ccccc1`, the Activity (with Thanatephorus cucumeris [1]; in the experiment on Thanatephorus cucumeris [2]; with Podosphaera fuliginea [3]; in the experiment with Podosphaera fuliginea [4]; with Podosphaera fuliginea [5]; in [6]) was 70% in each case. The Activity (in experiment [7]; with Thanatephorus cucumeris [8]; in experiment [9]; in the experiment with Thanatephorus cucumeris [10]; in the experiment with Podosphaera fuliginea [11]; in experiment [12]) was 70% throughout.
In the case of `CCO/N=C(/C(=O)NC)c1ccccc1Oc1ccccc1`, the Activity in the experiment with Thanatephorus cucumeris [1] is given as <70%; in the experiment with Thanatephorus cucumeris [2], <70%; in the experiment on Podosphaera fuliginea [3], 70%; in the experiment with Podosphaera fuliginea [4], 70%; in the experiment on Podosphaera fuliginea [5], 70%; in experiment [6], <70%. In addition, the Activity in [7] was <70%; with Thanatephorus cucumeris [8], <70%; in [9], <70%; in the experiment with Thanatephorus cucumeris [10], <70%; in the experiment on Podosphaera fuliginea [11], 70%; in [12], <70%.
Turning to `CNC(=O)/C(=N/OC)c1ccc(Oc2ccccc2)cc1`, the Activity is <70% in the experiment on Thanatephorus cucumeris [1]; <70% in the experiment with Thanatephorus cucumeris [2]; 70% with Podosphaera fuliginea [3]; 70% in the experiment with Podosphaera fuliginea [4]; 70% in the experiment on Podosphaera fuliginea [5]; <70% in experiment [6]. Further, the Activity in [7] was <70%; with Thanatephorus cucumeris [8], <70%; in [9], <70%; in the experiment on Thanatephorus cucumeris [10], <70%; in the experiment with Podosphaera fuliginea [11] it was 70%; in [12] it was <70%.
As to `CNC(=O)/C(=N/OC)c1ccccc1Sc1ccccc1`, the Activity (in the experiment with Thanatephorus cucumeris [1]; with Thanatephorus cucumeris [2]; in the experiment on Podosphaera fuliginea [3]; in the experiment with Podosphaera fuliginea [4]; with Podosphaera fuliginea [5]; in experiment [6]) was 70% in each case. The Activity (in [7]; with Thanatephorus cucumeris [8]; in [9]; in the experiment with Thanatephorus cucumeris [10]; with Podosphaera fuliginea [11]; in experiment [12]) was 70% throughout.
Take `CNC(=O)/C(=N/OC(C)C)c1ccccc1Oc1ccccc1`: the Activity (with Thanatephorus cucumeris [1]; in the experiment on Thanatephorus cucumeris [2]; in the experiment with Podosphaera fuliginea [3]; in the experiment on Podosphaera fuliginea [4]; with Podosphaera fuliginea [5]; in experiment [6]) was <70% each time. The Activity (in experiment [7]; in the experiment with Thanatephorus cucumeris [8]; in experiment [9]; with Thanatephorus cucumeris [10]; with Podosphaera fuliginea [11]; in experiment [12]) was <70% throughout.
As to `CNC(=O)/C(=N/OC)c1cc(OC)ccc1Oc1ccccc1`, the Activity (in the experiment on Thanatephorus cucumeris [1]; in the experiment on Thanatephorus cucumeris [2]; in the experiment on Podosphaera fuliginea [3]; in the experiment on Podosphaera fuliginea [4]; with Podosphaera fuliginea [5]; in experiment [6]) was 70% throughout. Moreover, the Activity (in [7]; with Thanatephorus cucumeris [8]; in experiment [9]; in the experiment with Thanatephorus cucumeris [10]; in the experiment with Podosphaera fuliginea [11]; in experiment [12]) was 70% each time.
Turning to `CO/N=C(/C(N)=O)c1ccccc1Oc1ccccc1`, the Activity (in the experiment with Thanatephorus cucumeris [1]; in the experiment on Thanatephorus cucumeris [2]; in [6]; in [7]; in the experiment on Thanatephorus cucumeris [8]; in experiment [9]) was <70% each time. Moreover, the Activity (in the experiment on Thanatephorus cucumeris [10]; in experiment [12]) was <70% in each case.
